Test results as given in PMC10257517 (European Journal of Medicinal Chemistry, 2023).

Legend:
VERO-E6 cells = assay: MTT cytotoxicity assay; type: cell-based; conditions: MTT, 24 h
[1] = test system: SARS-CoV-2 (hCoV-19/Egypt/NRC-03/2020); type: cell-based; conditions: for Selectivity index (SI): SI=CC50/IC50
MTT cytotoxicity assay = type: cell-based; conditions: African green monkey, VERO-E6 cells
[2] = molecular target: M^pro-SARS-CoV-2 (3CL Protease) (Severe acute respiratory syndrome coronavirus 2, UniProt P0DTD1); assay: M^pro-SARS-CoV-2 inhibition, 3CL Protease; type: biochemical
SARS-CoV-2 = conditions: read-out: EC50 (Vero-E6 cell); against SARS-CoV-2, Vero-E6 cell; cited from earlier work

Molecule | CC50 (VERO-E6 cells) | IC50 [1] | CC50 at 24 h (MTT cytotoxicity assay) | Selectivity index (SI) [1] | IC50 [2] | EC50 (SARS-CoV-2)
Diethyl (E)-[5''-(4-chlorobenzylidene)-4'-(4-chlorophenyl)-1′-methyl-2,4″-dioxodispiro[indoline-3,2′-pyrrolidine-3′,3″-piperidin]-1″-yl]phosphonate [Compound 6e] | 9.83 µM | 340 µM |  |  |  | 
CCOP(=O)(OCC)N1C/C(=C\c2ccc(Br)cc2)C(=O)C2(C1)C(c1ccc(Br)cc1)CN(C)C21C(=O)Nc2ccccc21 (stereo not shown) [Compound 6g, Diethyl (E)-[5''-(4-bromobenzylidene)-4'-(4-bromophenyl)-1′-methyl-2,4″-dioxodispiro[indoline-3,2′-pyrrolidine-3′,3″-piperidin]-1″-yl]phosphonate] |  |  | 20.3 µM | 2.29 | 15.6 ± 1.02 µM | 
Diethyl (E)-[1′-methyl-5''-(4-methylbenzylidene)-2,4″-dioxo-4'-(p-tolyl)dispiro[indoline-3,2′-pyrrolidine-3′,3″-piperidin]-1″-yl]phosphonate [Compound 6i] | 87 µM | 35.2 µM |  |  |  | 
Diethyl (E)-[5-chloro-5''-(4-chlorobenzylidene)-4'-(4-chlorophenyl)-1′-methyl-2,4″-dioxodispiro[indoline-3,2′-pyrrolidine-3′,3″-piperidin]-1″-yl]phosphonate [Compound 6f] | 10 µM | 7.26 µM |  |  |  | 
Diethyl (E)-(5″-benzylidene-1′-methyl-2,4″-dioxo-4′-phenyldispiro[indoline-3,2′-pyrrolidine-3′,3″-piperidin]-1″-yl)phosphonate [Compound 6a] | 73.1 µM | 88.6 µM |  |  |  | 
CCOP(=O)(OCC)N1C/C(=C\c2ccccc2)C(=O)C2(C1)C(c1ccccc1)CN(C)C21C(=O)Nc2ccc(Cl)cc21 (stereo not shown) [Compound 6b, Diethyl (E)-(5″-benzylidene-5-chloro-1′-methyl-2,4″-dioxo-4′-phenyldispiro[indoline-3,2′-pyrrolidine-3′,3″-piperidin]-1″-yl)phosphonate] |  |  | 22 µM | 2.12 | 9.6 ± 0.66 µM | 
Diethyl (E)-[1′-methyl-2,4″-dioxo-4'-(thiophen-2-yl)-5''-(thiophen-2-ylmethylene)dispiro[indoline-3,2′-pyrrolidine-3′,3″-piperidin]-1″-yl]phosphonate [Compound 6k] | 49.9 µM | 106 µM |  |  |  | 
CCOP(=O)(OCC)N1C/C(=C\c2ccc(F)cc2)C(=O)C2(C1)C(c1ccc(F)cc1)CN(C)C21C(=O)Nc2ccc(Cl)cc21 (stereo not shown) [Compound 6d, Diethyl (E)-[5-chloro-5''-(4-fluorobenzylidene)-4'-(4-fluorophenyl)-1′-methyl-2,4″-dioxodispiro[indoline-3,2′-pyrrolidine-3′,3″-piperidin]-1″-yl]phosphonate] |  |  | 18.8 µM | 1.39 | 42.8 ± 2.53 µM | 
Diethyl (E)-[5''-(4-methoxybenzylidene)-4'-(4-methoxyphenyl)-1′-methyl-2,4″-dioxodispiro[indoline-3,2′-pyrrolidine-3′,3″-piperidin]-1″-yl]phosphonate [Compound 6h] | 38.3 µM | 46.7 µM |  |  |  | 
Diethyl (E)-[5''-(4-fluorobenzylidene)-4'-(4-fluorophenyl)-1′-methyl-2,4″-dioxodispiro[indoline-3,2′-pyrrolidine-3′,3″-piperidin]-1″-yl]phosphonate [Compound 6c] | 126 µM | 85.8 µM |  |  |  | 
Diethyl (E)-[5-chloro-1′-methyl-5''-(4-methylbenzylidene)-2,4″-dioxo-4'-(p-tolyl)dispiro[indoline-3,2′-pyrrolidine-3′,3″-piperidin]-1″-yl]phosphonate [Compound 6j] | 40.1 µM | 21.7 µM |  |  |  | 
Diethyl (E)-[5-chloro-1′-methyl-2,4″-dioxo-4'-(thiophen-2-yl)-5''-(thiophen-2-ylmethylene)dispiro[indoline-3,2′-pyrrolidine-3′,3″-piperidin]-1″-yl]phosphonate [Compound 6l] | 23.7 µM | 578 µM |  |  |  | 
COc1cccc2[nH]c(C(=O)N[C@@H](CC(C)C)C(=O)N[C@@H](C[C@@H]3CCNC3=O)C(=O)CO)cc12 [PF-00835231] |  |  |  |  |  | ≤ 0.23 µM
